Holding throughout (format): cell-based
In assay [1] the test system is SW480. Put plainly: Selectivity for integrin alpha9beta1 (unknown origin) expressed in SW480 cells over integrin alpha5beta1 (unknown origin). To be noted: Homo sapiens.
Assay [2] concerns SW480. As to the kind of experiment: Selectivity for integrin alpha9beta1 (unknown origin) expressed in SW480 cells over integrin alpha4beta7 (unknown origin). To be noted: Homo sapiens.
The target of assay [3] is Integrin alpha-4/beta-1 (Homo sapiens) (UniProt P05556+P13612). Put plainly: Inhibition of C-terminal human lgG1 heavy chain constant region tagged recombinant soluble VCAM-1 binding to integrin alpha4beta1 in human Jurkat cells incubated for 30 mins by FACS based 15/7 antibody assay. (In general: In flow cytometry, cells or beads pass a laser one at a time.)
Assay [4] has as its target ITGB1-ITGA9 complex (Homo sapiens) (UniProt P05556+Q13797). As to the kind of experiment: Antagonist activity against integrin alpha9beta1 (unknown origin) expressed in SW480 cells assessed as inhibition of integrin alpha9-dependent cell adhesion to tenascin by binding saturation assay.

Active and inactive are the calls of the source. The calls are words filed in the database; no cut-off is given here. *1 amine or outer side, *2 acyl side, *3 side chain or, on linkers, in order; H or OH if unused. Where a SMILES comes first, the peptide text is derived from it. Side-chain parts run from the residue outwards. [ ]: non-standard residue; d: D form. The star is where a group is joined. Tos = Cc1ccc(S(=O)(=O)*)cc1; NMeA = CN[C@@H](C)C(=O)O; CO = O=C([*:1])[*:2]; Sar = CNCC(=O)O

For nine compounds, Selectivity ratio and inhibition results are on record in ChEMBL document CHEMBL3881521, “Alpha-9 integrin antagonists and anti-inflammatory compositions therof” (2003).

In the case of `Cc1ccc(S(=O)(=O)N2CS(=O)(=O)C(C)(C)[C@@H]2C(=O)N[C@@H](Cc2ccc(OCCCN(C)C)cc2)C(=O)O)cc1`, the Selectivity ratio in the assay on SW480 [1] and in the assay on SW480 [2] was 100 each time. The inhibition entry in assay [3] and in assay [4] was “Active” each time.
Regarding `CN(C)C(=O)Oc1ccc(C[C@H](NC(=O)[C@@H]2CCCN2S(=O)(=O)c2cnn(C)c2)C(=O)O)cc1`, the Selectivity ratio in the assay with SW480 [1] and in the assay on SW480 [2] was 100 in each case. For the same compound, the inhibition result in assay [3] and in assay [4] was “Active” each time.
Regarding `Cc1ccc(S(=O)(=O)N(C)[C@@H](C)C(=O)N[C@@H](Cc2ccc(OC(=O)N(C)C)cc2)C(=O)O)cc1` (Tos-[NMeA]-Tyr([CO-NMe2])-OH), the Selectivity ratio in the assay on SW480 [1] and with SW480 [2] was 100 throughout. In addition, the inhibition result in assay [3] and in assay [4] was “Active” each time.
With `Cc1ccc(S(=O)(=O)N2CCC[C@H]2C(=O)N[C@@H](Cc2ccc(OC(=O)N(C)C)cc2)C(=O)O)cc1` (Tos-Pro-Tyr([CO-NMe2])-OH), the Selectivity ratio in the assay with SW480 [1] and with SW480 [2] was 100 in each case. For the same compound, the inhibition entry in assay [3] and in assay [4] was “Active” throughout.
Regarding `Cc1ccc(S(=O)(=O)N2CS(=O)(=O)C(C)(C)[C@@H]2C(=O)N[C@@H](Cc2ccc(OC(=O)N(C)C)cc2)C(=O)O)cc1`, the Selectivity ratio with SW480 [1] and in the assay on SW480 [2] was 100 in each case. Besides, the inhibition entry in assay [3] and in assay [4] was “Active” each time.
For the compound `Cc1ccc(S(=O)(=O)N(C)CC(=O)N[C@@H](Cc2ccc(OC(=O)N(C)C)cc2)C(=O)O)cc1` (Tos-[Sar]-Tyr([CO-NMe2])-OH), the Selectivity ratio in the assay on SW480 [1] and in the assay with SW480 [2] was 100 each time. Also, the inhibition result in assay [3] and in assay [4] was “Active” throughout.
Turning to `Cc1ccc(S(=O)(=O)N2CCS(=O)(=O)C[C@@H]2C(=O)N[C@@H](Cc2ccc(OC(=O)N(C)C)cc2)C(=O)O)cc1`, the Selectivity ratio with SW480 [1] and in the assay with SW480 [2] was 100 each time. The inhibition entry in assay [3] and in assay [4] was “Active” in each case.
For the compound `Cc1ccc(S(=O)(=O)N2CCC[C@H]2C(=O)N[C@@H](Cc2ccc(OC(=O)N3CCN(C)CC3)cc2)C(=O)O)cc1`, the Selectivity ratio in the assay with SW480 [1] and with SW480 [2] was 100 in each case. The inhibition entry in assay [3] and in assay [4] was “Active” in each case.
On to `Cc1ccc(S(=O)(=O)N2CCC[C@H]2C(=O)N[C@@H](Cc2ccc(OC(=O)N3CCNCC3)cc2)C(=O)O)cc1`, for which the Selectivity ratio with SW480 [1] and in the assay on SW480 [2] was 100 in each case. Moreover, the inhibition result in assay [3] and in assay [4] was “Active” throughout.
